# Experiments:
# [1] = system: Staphylococcus aureus ATCC 25923; assay: Disk-diffusion test with ampicillin disk, inoculation by flooding or by droplets along an axis; format: cell-based; settings: disk containing 10 pig of ampicillin, 0.5 McFarland, 37° C. for 6 hours 30 minutes; similar for flooding and droplets; EUCAST threshold R 18 mm
# Text: A conventional test of sensitivity is the disk-diffusion test, often referred to as the Kirby-Bauer method. This standardized method involves the inoculation of an agar culture medium (for example a 90 mm or 150 mm Mueller-Hinton agar) with a sample, generally standardized to 0.5 McFarland, obtained from a microbial isolate. The inoculation may be performed by conventional manual methods, by means of a swab or a loop. Alternatively, the inoculation may be performed by flooding the agar with a suspension standardized to one tenth of 0.5 McFarland, followed by removal of the excess sample. Following the inoculation, one or more paper disks impregnated with defined concentrations of antibiotics are deposited on the surface of the agar. After an incubation period, generally from 16 to 20 hours at 35° C., the diameter of the zone(s) of inhibition around the disks makes it possible to determine the sensitivity of the microorganism present in the inoculated sample to each of the antimicrobial agents impregnated in each disk. Due to the standardization of the Kirby-Bauer method, the results of this method are analyzed by comparing the diameter of each of the zones of inhibition with the recommendations published by regulatory bodies such as NCCLS (National Committee for Clinical Laboratory Standards) or EUCAST (European Committee on Antimicrobial Susceptibility Testing). […]
# [2] = system: Escherichia coli ATCC 25922; assay: Etest strip MIC, sample deposited by smearing with a filtration sampling tool along two axes; format: cell-based; settings: smear deposition, incubated at 35° C., shadowgraphy images from 3 h 30; visual examination at 6 h 30 confirms
# Text: A third method of implementation of the invention is illustrated by FIGS. 11a, 11b and 12. In this method, the sample is deposited by smearing on the surface of the culture medium (e.g. agar in a Petri dish with a diameter greater than or equal to 9 cm) by means of a sampling tool such as described in the international application published under the number WO2012/083150. Such an integrated device makes it possible to carry out one or more filtration steps and also to transfer a liquid sample. Said device comprises a tubular portion, one of the ends of which is covered with a filtration material such as a membrane, said filtration material being arranged outside this end and covering it totally. The other end of the tubular portion is able to be connected to a suction or dispensing means such as a vacuum pump. The benefit of using such a tool especially being able to estimate the MIC of a sample originating from a positive blood culture bottle, that is to say one which has a result confirming the presence of microorganisms after a given incubation time. For this purpose, the sample may especially be prepared by taking off a volume of the positive blood culture, carrying out a step of lysis, for example chemical lysis, of the blood cells of the volume taken off, then by carrying out filtration of the lysed volume by suction at the surface of a membrane. […]
molecule,measurement,setting,value
"CC1(C)S[C@@H]2[C@H](NC(=O)[C@H](N)c3ccccc3)C(=O)N2[C@H]1C(=O)O [Ampicillin, ampicillin]",diameter D of the zone of inhibition,[1],22 mm
gentamicin,minimum inhibitory concentration,[2],1.5 µg/mL

# Reference: patent US10870876B2, “Method for detecting a presence or absence of at least one first zone of inhibition” (BIOMÉRIEUX, priority 2015, dated 2020)
